Assay results: paper PMC12368482, “Antiprotozoal Activity of Highly Substituted Pyrazole and Pyrimidine Derivatives” (Chemmedchem, 2025)
Read-outs that look alike come from different tables or passages of the source.

Assays:
Assay type in all cases: cell-based
[1] = tested on: P. falciparum D10; assay: Antiplasmodial susceptibility assay (pLDH), CQ-sensitive D10 strain; details: Plasmodium falciparum, read-out: IC50 P. falciparum D10
Procedure: (§1) Continuous in vitro Plasmodium falciparum cultures were carried out according to Trager and Jensen with slight modifications.^[ [38] ^] The CQ‐susceptible strain D10 and the CQ‐resistant strain W2 were maintained at 5% hematocrit (human type A‐positive red blood cells) in RPMI 1640 (EuroClone, Celbio) medium with the addition of 1% AlbuMax (Invitrogen, Milan, Italy), 0.01% hypoxanthine, 20 mM HEPES (at pH 7.4), and 2 mM glutamine. All the cultures were maintained at 37 °C in a low‐oxygen atmosphere consisting of 1% O2, 5% CO2, and 94% N2. Compounds were dissolved in DMSO to a stock concentration of 10 mg/ml and then diluted with complete medium to achieve the desired concentrations (final DMSO concentration <1%, which is nontoxic to the parasite). Derivatives were placed in 96‐well flat‐bottomed microplates in duplicate, and seven 1:2 serial dilutions were made directly in the plate in a volume of 100 μL. Asynchronous cultures with parasitemia of 1%–1.5% (assessed through Giemsa stained blood smears) and 1% final hematocrit were aliquoted into the plates and incubated for 72 h at 37 °C in a final volume of 200 μL/well. Uninfected erythrocytes at 2% hematocrit were used as blank. The antimalarial CQ was tested against the parasite strains as a positive control of inhibition. Parasite growth was determined spectrophotometrically (OD650) by measuring the activity of the parasite lactate dehydrogenase (pLDH), according to a modified version of the method of Makler in control and drug‐treated cultures.^[ [39] ^] The antimalarial activity was expressed as 50% inhibitory concentrations (IC50). The IC50 values were extrapolated from nonlinear regression analysis of the concentration–response curve, using the software Gen5 1.10 provided with the Synergy 4 (BioTek) reader. Each IC50 value was the mean of three independent experiments run in duplicates.

[2] = tested on: P. falciparum W2; assay: Antiplasmodial susceptibility assay (pLDH), CQ-resistant W2 strain; details: Plasmodium falciparum, read-out: IC50 P. falciparum W2
Procedure: as §1

[3] = tested on: L. infantum promastigotes; assay: Antileishmanial evaluation (MTT), promastigotes; details: Leishmania infantum, 72 h, NA = not active
Procedure: (§2) The promastigote stage of L. infantum strain MHOM/TN/80/IPT1 (kindly provided by Dr M. Gramiccia, ISS, Roma) and L. tropica strain (MHOM/IT/2012/ISS3130) were cultured in RPMI 1640 medium (EuroClone) supplemented with 10% heat‐inactivated fetal calf serum (EuroClone), 20 mM Hepes, and 2 mM L‐glutamine at 24 °C. To determine the 50% inhibitory concentration (IC50), the MTT method was used.^[ [40], [41] ^] Compounds were dissolved in DMSO and then diluted with medium to achieve the required concentrations. Drugs were placed in 96 wells round‐bottom microplates and seven serial dilutions made. Amphotericin B was used as reference antiLeishmania drug. Parasites were diluted in complete medium to 5 × 10^6 parasites mL^−1 and 100 μL of the suspension was added to each well. The plates were incubated at 24 °C for 72 h, after the incubation 20 μL of MTT solution (5 mg mL^−1) was added to each well and incubated for additional 3 h. The plates were then centrifuged at 1000 × g for 8 min at room temperature and the supernatants were discarded. The resulting pellets were dissolved in 100 μL of lysing buffer consisting of 20% w/v of a solution of SDS (Sigma), 40% of DMF (Merck) in H2O. The absorbance was measured spectrophotometrically at a test wavelength of 550 nm and a reference wavelength of 650 nm. The results were expressed as IC50 which was the concentration of compound necessary to inhibit parasite growth by 50%; each IC50 value was the mean of separate experiments performed in duplicate.

[4] = tested on: L. tropica promastigotes; assay: Antileishmanial evaluation (MTT), promastigotes; details: Leishmania tropica, 72 h, NA = not active
Procedure: as §2

[5] = MTT cytotoxicity assay on fibroblasts; details: human, GM-6114 embryonic human fibroblasts, compounds tested at 10 μM for 48 h, percentage of control, read-out: Cell viability GM‐6114
Procedure: MTT assays: MTT assays were performed using GM‐6114 (embryonic human fibroblast, ATCC, Manassas, VA). The cells were grown in DMEM with 10% FBS, 2 mM glutamine, and 1% penstrep and incubated at 37 °C in 5% CO2 in a humidified environment. All reagents were purchased from EuroClone (Milan, Italy). Briefly, the cell line was plated in 96 well plates at an adequate number to reach 80%–90% of confluence at the end of the assay. 16 h after cell plating, compounds were dissolved in DMSO to give a 10 mM stock solution, diluted in growth medium, and added at a final working concentration of 10 μM. After 48 h of incubation, 30 μL of 3‐(4,5‐dimethyl‐2‐thiazolyl)‐2,5‐diphenyl‐2H‐tetrazolium bromide (MTT) at a concentration of 2 mg mL^−1 in PBS were added in each well. Then, after further 4 h of incubation, the supernatant was removed, and 100 μL/well of DMSO were used to dissolve the formazan precipitate that could be found in vital cells. After 20 min, the results were read at 570 nm by means of a plate reader. The results were expressed as percentage of the control samples in which the cells were incubated with the same amount of DMSO but without compounds. The assays were repeated three times. In each set, every single compound was tested six times. Variation among duplicates was less than 10%.

[6] = CQ-sensitive strain D10, 72 h, pLDH readout, mean of three independent experiments in duplicate, NA = not active
[7] = CQ-resistant strain W2, 72 h, pLDH readout, mean of three independent experiments in duplicate, NA = not active

IC50 [1, 6] [µM]	IC50 [2, 7] [µM]	IC50 [3] [µM]	IC50 [4] [µM]	Structure (SMILES)	viability at 48 h, 10 μM [5] [%]	IC50 ([1]; D10, 72 h) [µM]	IC50 ([2]; W2, 72 h) [µM]
28.6	25.6	40.1	52.2	COc1ccc(CCNc2[nH]nc(C(C)(C)C)c2C#N)cc1OC [13a, 3‐(tert‐butyl)‐5‐((3,4‐dimethoxyphenethyl)amino)‐1H‐pyrazole‐4‐carbonitrile]	82	–	–
–	–	–	–	CC(C)(C)c1n[nH]c(N2CCOCC2)c1C#N [13b, 3‐(tert‐butyl)‐5‐morpholino‐1H‐pyrazole‐4‐carbonitrile]	91	–	–
14.9	11.1	30.4	34.6	CC(C)(C)c1n[nH]c(N2CCC(c3ccccc3)CC2)c1C#N [13c, 3‐(tert‐butyl)‐5‐(4‐phenylpiperidin‐1‐yl)‐1H‐pyrazole‐4‐carbonitrile]	94	–	–
35.1	36.5	40.1	55.7	COc1ccc(CCNc2[nH]nc(-c3ccccc3)c2C#N)cc1OC [14a, 5‐((3,4‐dimethoxyphenethyl)amino)‐3‐phenyl‐1H‐pyrazole‐4‐carbonitrile]	87	–	–
–	–	75.9	–	N#Cc1c(-c2ccccc2)n[nH]c1N1CCOCC1 [14b, 5‐morpholino‐3‐phenyl‐1H‐pyrazole‐4‐carbonitrile]	84	–	–
31	23.4	22.4	21.3	N#Cc1c(-c2ccccc2)n[nH]c1N1CCC(c2ccccc2)CC1 [14c, 3‐phenyl‐5‐(4‐phenylpiperidin‐1‐yl)‐1H‐pyrazole‐4‐carbonitrile]	76	–	–
9.52	9	7.92	11.6	CCCCN(CCCC)CCNc1[nH]nc(-c2ccccc2)c1C#N [14d, 5‐((2‐(dibutylamino)ethyl)amino)‐3‐phenyl‐1H‐pyrazole‐4‐carbonitrile]	71	–	–
9.79	4.34	6.17	8.32	CCCCN(CCCC)CCCNc1[nH]nc(-c2ccccc2)c1C#N [14e, 5‐((3‐(dibutylamino)propyl)amino)‐3‐phenyl‐1H‐pyrazole‐4‐carbonitrile]	65	–	–
43.3	13.4	11	9.74	CCN(CC)CCCC(C)Nc1[nH]nc(-c2ccccc2)c1C#N (stereo not shown) [14f, 5‐((5‐(diethylamino)pentan‐2‐yl)amino)‐3‐phenyl‐1H‐pyrazole‐4‐carbonitrile]	58	–	–
–	–	–	–	COc1ccc(CCNc2[nH]nc(N)c2S(=O)(=O)c2ccccc2)cc1OC [15a, N ^ 5 ‐(3,4‐dimethoxyphenethyl)‐4‐(phenylsulfonyl)‐1H‐pyrazole‐3,5‐diamine]	70	–	–
49.6	50.4	–	–	Nc1n[nH]c(N2CCOCC2)c1S(=O)(=O)c1ccccc1 [15b, 5‐morpholino‐4‐(phenylsulfonyl)‐1H‐pyrazol‐3‐amine]	87	–	–
38	51.8	27.4	44	Nc1n[nH]c(N2CCC(c3ccccc3)CC2)c1S(=O)(=O)c1ccccc1 [15c, 5‐(4‐phenylpiperidin‐1‐yl)‐4‐(phenylsulfonyl)‐1H‐pyrazol‐3‐amine]	102	–	–
9.24	31.7	–	–	COc1ccc(CCNc2nc(N)nc(O)c2C#N)cc1OC [16a, 2‐amino‐4‐((3,4‐dimethoxyphenethyl)amino)‐6‐hydroxypyrimidine‐5‐carbonitrile]	67	–	–
–	–	–	–	N#Cc1c(O)nc(N)nc1N1CCOCC1 [16b, 2‐amino‐4‐hydroxy‐6‐morpholinopyrimidine‐5‐carbonitrile]	65	–	–
–	45	–	–	CCCCN(CCCC)CCCNc1nc(N)nc(O)c1C#N [16e, 2‐amino‐4‐((3‐(dibutylamino)propyl)amino)‐6‐hydroxypyrimidine‐5‐carbonitrile]	66	–	–
–	–	–	–	COc1ccc(CCNc2nc(N)nc(-c3ccccc3)c2C#N)cc1OC [17a, 2‐amino‐4‐((3,4‐dimethoxyphenethyl)amino)‐6‐phenylpyrimidine‐5‐carbonitrile]	46	–	–
–	–	–	–	N#Cc1c(-c2ccccc2)nc(N)nc1N1CCOCC1 [17b, 2‐amino‐4‐morpholino‐6‐phenylpyrimidine‐5‐carbonitrile]	66	–	–
16.7	4.18	7.31	9.14	CCCCN(CCCC)CCCNc1nc(N)nc(-c2ccccc2)c1C#N [17e, 2‐amino‐4‐((3‐(dibutylamino)propyl)amino)‐6‐phenylpyrimidine‐5‐carbonitrile]	67	–	–
–	–	0.22	0.29	C[C@@H]1[C@H](O)[C@@H](C)/C=C/C=C/C=C/C=C/C=C/C=C/C=C/[C@H](O[C@@H]2O[C@H](C)[C@@H](O)[C@H](N)[C@@H]2O)C[C@@H]2O[C@](O)(C[C@@H](O)C[C@@H](O)[C@H](O)CC[C@@H](O)C[C@@H](O)CC(=O)O[C@H]1C)C[C@H](O)[C@H]2C(=O)O [AmB, amphotericin B, reference compound]	–	–	–
–	–	–	–	CCN(CC)CCCC(C)Nc1ccnc2cc(Cl)ccc12 (stereo not shown) [CQ, chloroquine, reference compound]	–	0.04	0.45
27.8	21	17.7	21.2	N#Cc1c(-c2cccc(Br)c2)n[nH]c1Nc1ccccc1 [VIa, reference compound]	78	–	–
34.3	32.7	19.1	23.2	N#Cc1c(-c2ccc(Cl)cc2)n[nH]c1Nc1ccccc1 [VIb, reference compound]	70	–	–
19.8	19.9	19.3	23.2	N#Cc1c(-c2ccc(Br)cc2)n[nH]c1Nc1ccccc1 [VIc, reference compound]	67	–	–
